PMC10408569, “Recruitment of hexahydroquinoline as anticancer scaffold targeting inhibition of wild and mutants EGFR (EGFR^WT, EGFR^T790M, and EGFR^L858R)” (Journal of Enzyme Inhibition and Medicinal Chemistry, 2023)

Tests used:
UACC-62 = experiment: NCI-60 anticancer screening (SRB); assay type: cell-based; details: Homo sapiens; UACC-62, melanoma; one dose 10 μM; read-out: Growth Inhibition Percentage (GI %)
NCI-H322M = experiment: NCI-60 anticancer screening (SRB); assay type: cell-based; details: Homo sapiens, NSC lung cancer, one dose 10 μM, read-out: Growth Inhibition Percentage (GI %)
NCI 60 cancer cell lines = experiment: NCI-60 anticancer screening (SRB), whole panel; assay type: cell-based, human; details: mean across the NCI-60 panel; one dose 10 μM
BT-549 = experiment: NCI-60 anticancer screening (SRB); assay type: cell-based; details: Homo sapiens; BT-549, breast cancer; one dose 10 μM; read-out: Growth Inhibition Percentage (GI %)
OVCAR-4 = experiment: NCI-60 anticancer screening (SRB); assay type: cell-based; details: Homo sapiens; OVCAR-4, ovarian cancer; one dose 10 μM; read-out: Growth Inhibition Percentage (GI %)
PC-3 = experiment: NCI-60 anticancer screening (SRB); assay type: cell-based; details: Homo sapiens; PC-3, prostate cancer; one dose 10 μM; read-out: Growth Inhibition Percentage (GI %)
MDA-MB-435 = experiment: NCI-60 anticancer screening (SRB); assay type: cell-based; details: Homo sapiens; MDA-MB-435, melanoma; one dose 10 μM; read-out: Growth Inhibition Percentage (GI %)
COLO 205 = experiment: NCI-60 anticancer screening (SRB); assay type: cell-based; details: Homo sapiens; COLO 205, colon cancer; one dose 10 μM; read-out: Growth Inhibition Percentage (GI %)
OVCAR-8 = experiment: NCI-60 anticancer screening (SRB); assay type: cell-based; details: Homo sapiens; OVCAR-8, ovarian cancer; one dose 10 μM; read-out: Growth Inhibition Percentage (GI %)
A549/ATCC = experiment: NCI-60 anticancer screening (SRB); assay type: cell-based; details: Homo sapiens; A549/ATCC, NSC lung cancer; one dose 10 μM; read-out: Growth Inhibition Percentage (GI %)
HCT-15 = experiment: NCI-60 anticancer screening (SRB); assay type: cell-based; details: Homo sapiens; HCT-15, colon cancer; one dose 10 μM; read-out: Growth Inhibition Percentage (GI %)
OVCAR-3 = experiment: NCI-60 anticancer screening (SRB); assay type: cell-based; details: Homo sapiens; OVCAR-3, ovarian cancer; one dose 10 μM; read-out: Growth Inhibition Percentage (GI %)
HS 578T = experiment: NCI-60 anticancer screening (SRB); assay type: cell-based; details: Homo sapiens; HS 578T, breast cancer; one dose 10 μM; read-out: Growth Inhibition Percentage (GI %)
MDA-MB-468 = experiment: NCI-60 anticancer screening (SRB); assay type: cell-based; details: Homo sapiens; MDA-MB-468, breast cancer; one dose 10 μM; read-out: Growth Inhibition Percentage (GI %)
NCI/ADR-RES = experiment: NCI-60 anticancer screening (SRB); assay type: cell-based; details: Homo sapiens, ovarian cancer, one dose 10 μM, read-out: Growth Inhibition Percentage (GI %)
SK-MEL-28 = experiment: NCI-60 anticancer screening (SRB); assay type: cell-based; details: Homo sapiens; SK-MEL-28, melanoma; one dose 10 μM; read-out: Growth Inhibition Percentage (GI %)
CCRF-CEM = experiment: NCI-60 anticancer screening (SRB); assay type: cell-based; details: Homo sapiens, leukemia, one dose 10 μM, read-out: Growth Inhibition Percentage (GI %)
SW-620 = experiment: NCI-60 anticancer screening (SRB); assay type: cell-based; details: Homo sapiens; SW-620, colon cancer; one dose 10 μM; read-out: Growth Inhibition Percentage (GI %)
KM 12 = experiment: NCI-60 anticancer screening (SRB); assay type: cell-based; details: Homo sapiens, KM12; KM 12, colon cancer; one dose 10 μM; read-out: Growth Inhibition Percentage (GI %)
SK-OV-3 = experiment: NCI-60 anticancer screening (SRB); assay type: cell-based; details: Homo sapiens; SK-OV-3, ovarian cancer; one dose 10 μM; read-out: Growth Inhibition Percentage (GI %)
MDA-MB-231 = experiment: NCI-60 anticancer screening (SRB); assay type: cell-based; details: Homo sapiens; MDA-MB-231, breast cancer; one dose 10 μM; read-out: Growth Inhibition Percentage (GI %)
MOLT-4 = experiment: NCI-60 anticancer screening (SRB); assay type: cell-based; details: Homo sapiens; MOLT-4, leukemia; one dose 10 μM; read-out: Growth Inhibition Percentage (GI %)
HL-60(TB) = experiment: NCI-60 anticancer screening (SRB); assay type: cell-based; details: Homo sapiens, leukemia, one dose 10 μM, read-out: Growth Inhibition Percentage (GI %)
RXF 393 = experiment: NCI-60 anticancer screening (SRB); assay type: cell-based; details: Homo sapiens; RXF 393, renal cancer; one dose 10 μM; read-out: Growth Inhibition Percentage (GI %)
TK-10 = experiment: NCI-60 anticancer screening (SRB); assay type: cell-based; details: Homo sapiens; TK-10, renal cancer; one dose 10 μM; read-out: Growth Inhibition Percentage (GI %)
HCC-2998 = experiment: NCI-60 anticancer screening (SRB); assay type: cell-based; details: Homo sapiens; HCC-2998, colon cancer; one dose 10 μM; read-out: Growth Inhibition Percentage (GI %)
UO-31 = experiment: NCI-60 anticancer screening (SRB); assay type: cell-based; details: Homo sapiens; UO-31, renal cancer; one dose 10 μM; read-out: Growth Inhibition Percentage (GI %)
MCF7 = experiment: NCI-60 anticancer screening (SRB); assay type: cell-based; details: Homo sapiens; MCF7, breast cancer; one dose 10 μM; read-out: Growth Inhibition Percentage (GI %)

`CCOC(=O)C1=C(N)N(c2ccc(Cl)cc2)C2=C(C(=O)CC(C)(C)C2)C1c1ccc(OC)cc1` (racemic) [8h, (±)-Ethyl 2-amino-1–(4-chlorophenyl)-4–(4-methoxyphenyl)-7,7-dimethyl-5-oxo-1,4,5,6,7,8-hexahydroquinoline-3-carboxylate] was tested, and the inhibition at 10 µM (UACC-62) was < 10%, the inhibition at 10 µM (NCI-H322M) was < 10% and the GI % mean (NCI 60 cancer cell lines) was “- ((-) = GI % mean less than 10)”. For the same molecule, the inhibition at 10 µM (BT-549) was 25%, the inhibition at 10 µM (OVCAR-4) was < 10% and the inhibition at 10 µM (PC-3) was < 10%. The inhibition at 10 µM (MDA-MB-435) was < 10%, the inhibition at 10 µM (COLO 205) was < 10% and the inhibition at 10 µM (OVCAR-8) was < 10%. The inhibition at 10 µM (A549/ATCC) was < 10%, the inhibition at 10 µM (HCT-15) was < 10% and the inhibition at 10 µM (OVCAR-3) was < 10%. The inhibition at 10 µM (HS 578T) was < 10%, the inhibition at 10 µM (MDA-MB-468) was < 10% and the inhibition at 10 µM (NCI/ADR-RES) was < 10%. For the same molecule, the inhibition at 10 µM (SK-MEL-28) was < 10%, the inhibition at 10 µM (CCRF-CEM) was < 10% and the inhibition at 10 µM (SW-620) was < 10%. The inhibition at 10 µM (KM 12) was < 10%, the inhibition at 10 µM (SK-OV-3) was < 10% and the inhibition at 10 µM (MDA-MB-231) was < 10%. For the same molecule, the inhibition at 10 µM (MOLT-4) was < 10%, the inhibition at 10 µM (HL-60(TB)) was < 10% and the inhibition at 10 µM (RXF 393) was < 10%. The inhibition at 10 µM (TK-10) was < 10%, the inhibition at 10 µM (HCC-2998) was < 10% and the inhibition at 10 µM (UO-31) was < 10%. The inhibition at 10 µM (MCF7) was < 10%.

In the case of `CCOC(=O)C1=C(N)N(c2ccc(C)cc2)C2=C(C(=O)CC(C)(C)C2)C1c1ccccn1` (racemic) [12b, (±)-Ethyl 2-amino-7,7-dimethyl-1–(4-methylphenyl)-5-oxo-1-phenyl-4-(pyrdin-2-yl)-1,4,5,6,7,8-hexahydroquinoline-3-carboxylate], the inhibition at 10 µM (UACC-62) is reported as 26%, the inhibition at 10 µM (NCI-H322M) is reported as < 10% and the GI % mean (NCI 60 cancer cell lines) is reported as “- ((-) = GI % mean less than 10)”. For the same molecule, the inhibition at 10 µM (BT-549) was 30%, the inhibition at 10 µM (OVCAR-4) was < 10% and the inhibition at 10 µM (PC-3) was < 10%. The inhibition at 10 µM (MDA-MB-435) was < 10%, the inhibition at 10 µM (COLO 205) was < 10% and the inhibition at 10 µM (OVCAR-8) was < 10%. For the same molecule, the inhibition at 10 µM (A549/ATCC) was < 10%, the inhibition at 10 µM (HCT-15) was < 10% and the inhibition at 10 µM (OVCAR-3) was < 10%. The inhibition at 10 µM (HS 578T) was < 10%, the inhibition at 10 µM (MDA-MB-468) was 82% and the inhibition at 10 µM (NCI/ADR-RES) was < 10%. For the same molecule, the inhibition at 10 µM (SK-MEL-28) was < 10%, the inhibition at 10 µM (CCRF-CEM) was < 10% and the inhibition at 10 µM (SW-620) was < 10%. For the same molecule, the inhibition at 10 µM (KM 12) was < 10%, the inhibition at 10 µM (SK-OV-3) was < 10% and the inhibition at 10 µM (MDA-MB-231) was 13%. For the same molecule, the inhibition at 10 µM (MOLT-4) was < 10%, the inhibition at 10 µM (HL-60(TB)) was < 10% and the inhibition at 10 µM (RXF 393) was < 10%. The inhibition at 10 µM (TK-10) was < 10%, the inhibition at 10 µM (HCC-2998) was < 10% and the inhibition at 10 µM (UO-31) was 23%. The inhibition at 10 µM (MCF7) was 12%.

With `CCOC(=O)C1=C(N)N(c2ccccc2)C2=C(C(=O)CC(C)(C)C2)C1c1ccc([N+](=O)[O-])cc1` (racemic) [8i, (±)-Ethyl 2-amino-4–(4-nitrophenyl)-7,7-dimethyl-5-oxo-1-phenyl-1,4,5,6,7,8-hexahydroquinoline-3-carboxylate] the inhibition at 10 µM (UACC-62) was 33%, the inhibition at 10 µM (NCI-H322M) was < 10% and the GI % mean (NCI 60 cancer cell lines) was “- ((-) = GI % mean less than 10)”. The inhibition at 10 µM (BT-549) was < 10%, the inhibition at 10 µM (OVCAR-4) was < 10% and the inhibition at 10 µM (PC-3) was 32%. For the same molecule, the inhibition at 10 µM (MDA-MB-435) was < 10%, the inhibition at 10 µM (COLO 205) was < 10% and the inhibition at 10 µM (OVCAR-8) was < 10%. For the same molecule, the inhibition at 10 µM (A549/ATCC) was < 10%, the inhibition at 10 µM (HCT-15) was 14% and the inhibition at 10 µM (OVCAR-3) was < 10%. The inhibition at 10 µM (HS 578T) was < 10%, the inhibition at 10 µM (MDA-MB-468) was < 10% and the inhibition at 10 µM (NCI/ADR-RES) was < 10%. The inhibition at 10 µM (SK-MEL-28) was < 10%, the inhibition at 10 µM (CCRF-CEM) was 11% and the inhibition at 10 µM (SW-620) was < 10%. The inhibition at 10 µM (KM 12) was < 10%, the inhibition at 10 µM (MDA-MB-231) was < 10% and the inhibition at 10 µM (MOLT-4) was 22%. For the same molecule, the inhibition at 10 µM (HL-60(TB)) was < 10%, the inhibition at 10 µM (RXF 393) was < 10% and the inhibition at 10 µM (TK-10) was < 10%. The inhibition at 10 µM (HCC-2998) was < 10%, the inhibition at 10 µM (UO-31) was < 10% and the inhibition at 10 µM (MCF7) was 16%.

In the case of `CCOC(=O)C1=C(N)N(c2ccc(C)cc2)C2=C(C(=O)CC(C)(C)C2)C1c1ccccc1OC` (racemic) [6h, (±)-Ethyl 2-amino-4–(2-methoxyphenyl)-7,7-dimethyl-1–(4-methylphenyl)-5-oxo-1,4,5,6,7,8-hexahydroquinoline-3-carboxylate], the inhibition at 10 µM (UACC-62) is reported as < 10%, the inhibition at 10 µM (NCI-H322M) is reported as < 10% and the inhibition at 10 µM (BT-549) is reported as < 10%. For the same molecule, the inhibition at 10 µM (OVCAR-4) was < 10%, the inhibition at 10 µM (PC-3) was < 10% and the inhibition at 10 µM (MDA-MB-435) was < 10%. The inhibition at 10 µM (COLO 205) was < 10%, the inhibition at 10 µM (OVCAR-8) was < 10% and the inhibition at 10 µM (A549/ATCC) was < 10%. The inhibition at 10 µM (HCT-15) was < 10%, the inhibition at 10 µM (OVCAR-3) was < 10% and the inhibition at 10 µM (HS 578T) was < 10%. For the same molecule, the inhibition at 10 µM (MDA-MB-468) was < 10%, the inhibition at 10 µM (NCI/ADR-RES) was < 10% and the inhibition at 10 µM (SK-MEL-28) was < 10%. The inhibition at 10 µM (CCRF-CEM) was < 10%, the inhibition at 10 µM (SW-620) was < 10% and the inhibition at 10 µM (KM 12) was < 10%. The inhibition at 10 µM (SK-OV-3) was < 10%, the inhibition at 10 µM (MDA-MB-231) was < 10% and the inhibition at 10 µM (MOLT-4) was < 10%. For the same molecule, the inhibition at 10 µM (HL-60(TB)) was < 10%, the inhibition at 10 µM (RXF 393) was < 10% and the inhibition at 10 µM (TK-10) was < 10%. The inhibition at 10 µM (HCC-2998) was < 10%, the inhibition at 10 µM (UO-31) was 21% and the inhibition at 10 µM (MCF7) was < 10%.
